Test results reported in the C3SDB collision cross section collection.
Values joined by “and” are separate entries in the source; they are usually repeats but may differ in a detail not shown here. Equal values may be shown once.

Key:
[1] = instrument: DT, single field, calibrated with Agilent tune mix (Agilent)
[2] = instrument: DT, single field
[3] = [M+Na]+; instrument: DT; stepped-field
[4] = instrument: TW, calibrated with phosphatidylcholines (ESI+) and phosphatidylethanolamines (ESI-)

Row | SMILES | collision cross section (N2) ([1]; [M+NH4]+) | collision cross section (N2) ([2]; [M+NH4]+) | collision cross section (N2) ([2]; [M+Na]+) | further results
1 | CCCCC/C=C\C/C=C\C/C=C\CCCCCCCCC(=O)OC[C@@H](COC(=O)CCCCCCCCCCCC)OC(=O)CCCCCCCCCCCC [TG(48:3)] | 304.8 Å² | 304.89 Å² and 307.09 Å² | 304.27 Å² and 306.32 Å² | 
2 | CCCCC/C=C\C/C=C\CCCCCCCCCCCC(=O)OC[C@@H](COC(=O)CCCCCCCCCCCC)OC(=O)CCCCCCCCC/C=C\CCCCCCCCCC [TG(57:3)] | 332.9 Å² | 336.68 Å² and 339.26 Å² |  | 
3 | CCCCCCCCCCCCC=CC[C@@H](O)[C@H](COP(=O)([O-])OCC[N+](C)(C)C)NC(=O)CC=CCCCCCCCCCCCCCCCCCC [SM(40:2)] |  |  |  | collision cross section (N2) [3]: 301.7 Å²; collision cross section (N2) ([1]; [M+H]+): 298.4 Å²; collision cross section (N2) ([2]; [M+H]+): 298.58 Å²
4 | CCCCCCCCCCCCC=CC[C@@H](O)[C@H](COP(=O)([O-])OCC[N+](C)(C)C)NC(=O)CCCCCCCCCCCCC [SM(32:1)] |  |  |  | collision cross section (N2) ([1]; [M+H]+): 276.6 Å²; collision cross section (N2) ([2]; [M+H]+): 275.46 Å²
5 | CCCCC/C=C\C/C=C\C/C=C\C/C=C\CCCC(=O)OC[C@@H](COC(=O)CCCCCCCCCCC)OC(=O)CCCCCCC/C=C\CCCCCCCC [TG(50:5)] |  |  | 308.34 Å² and 309.51 Å² | 
6 | CCCC/C=C\C/C=C\CCCCCCCC(=O)OC[C@H](COC(=O)CCCCCCCCC/C=C\CCCCCCCCCC)OC(=O)CCCCCCC/C=C\C/C=C\CCCC [TG(56:5)] |  |  | 327.06 Å² and 327.86 Å² | 
7 | CCCCCCCCCC/C=C\CCCCCCCCCC(=O)OC[C@@H](COC(=O)CCCCCCCCCCCC)OC(=O)CCCCCCCCC/C=C\CCCCCCCCCC [TG(57:2)] | 334.6 Å² | 338.57 Å² and 340.8 Å² |  | 
8 | CCCCCCCCCCCCCCCCCCCCCC(=O)OC[C@@H](COC(=O)CCCCCCCCCCC)OC(=O)CCCCCCCCCCC [TG(46:0)] |  |  | 302.69 Å² and 303.56 Å² | 
9 | CCCCCCCCC/C=C\CCCCCCCC(=O)OC[C@H](COC(=O)CCCCCCCCCCCCCCCCCCCCC)OC(=O)CCCCCCC/C=C\CCCCCCCCC [TG(60:2)] |  | 346.03 Å² |  | 
10 | CCCCCCCCCC/C=C\CCCCCCCCCC(=O)OC[C@@H](COC(=O)CCCCCCCCCCCCC)OC(=O)CCCCCCCCC/C=C\CCCCCCCCCC [TG(58:2)] | 337.8 Å² | 341.17 Å² and 343.91 Å² and 338.53 Å² |  | 
11 | CCCCCCCCCCCCCCCCCCC(=O)OC[C@@H](COC(=O)CCCCCCCCCCC)OC(=O)CCCCCCCCCCCCCCCCCC [TG(50:0)] |  |  | 316.28 Å² | 
12 | CCCCCCCCCCCCCCCCCCCCC(=O)OC[C@@H](COC(=O)CCCCCCCCCCC)OC(=O)CCCCCCCCCCCCCCCCCCCC [TG(54:0)] |  | 331.43 Å² |  | 
13 | CCCCCCCCCCCCCCCC(=O)OC[C@H](COP(=O)([O-])OCC[N+](C)(C)C)OC(=O)CCCCCCCCCCCCC [PC(30:0)] |  |  |  | collision cross section (N2) ([1]; [M+H]+): 276.8 Å²; collision cross section (N2) ([2]; [M+H]+): 276.5 Å² and 277.83 Å²
14 | CCCC/C=C\C/C=C\CCCCCCCC(=O)O[C@@H](COC(=O)CCCCCCCCC/C=C\C/C=C\CCCCC)COC(=O)CCCCCCCCCCC [TG(49:4)] |  | 307.56 Å² |  | 
15 | CCCCCCCCCCCCCC=CCC(=O)OC[C@H](CO[C@@H]1O[C@H](CO[C@H]2O[C@H](CO)[C@H](O)C(O)C2O)[C@H](O)C(O)C1O)OC(=O)CC=CCCCCCCCCCCCCC (some centres undefined) [DGDG(34:2)] |  |  |  | collision cross section (N2) ([4]; [M+NH4]+): 309 Å²; collision cross section (N2) ([4]; [M+Na]+): 305.2 Å²
16 | CCCCCCCCCCCCCC=CCC(=O)OC[C@H](CO[C@@H]1O[C@H](CO[C@H]2O[C@H](CO)[C@H](O)C(O)C2O)[C@H](O)C(O)C1O)OC(=O)CC=CCCCCCCCCCCCCC (some centres undefined) [DGDG(16:0/18:2)] |  |  |  | collision cross section (N2) ([4]; [M+CH3COO]-): 312.7 Å²; collision cross section (N2) ([4]; [M+Cl]-): 304.9 Å²; collision cross section (N2) ([4]; [M+NH4]+): 307.5 Å²; collision cross section (N2) ([4]; [M+Na]+): 306.5 Å²; collision cross section (N2) ([4]; [M-H]-): 301.9 Å²
17 | CCCCCCCCCCCCCCCCCCCCC(=O)OC[C@H](COP(=O)(O)OC[C@@H](O)CO)OC(=O)CCCCCCCCCCC [PG(33:0)] |  |  |  | collision cross section (N2) ([4]; [M-H]-): 268.6 Å²
18 | CC/C=C\C/C=C\C/C=C\C/C=C\C/C=C\CCCCCC(=O)OC[C@@H](COC(=O)CCCCCCC/C=C\CCCCC)OC(=O)CCCCCCCCCCCCCCCCCC [TG(56:6)] | 328.3 Å² |  | 326.57 Å² and 325 Å² | 
19 | CCCCCC/C=C\CCCCCCCCCC(=O)OC(COC(=O)CCCCCCCCCCCCCCC)CO[C@@H]1O[C@@H](C(=O)O)[C@H](O)[C@H](O)[C@H]1O (some centres undefined) [GlcADG(16:0/18:1)] |  |  |  | collision cross section (N2) ([4]; [M+NH4]+): 290.1 Å²; collision cross section (N2) ([4]; [M+Na]+): 288.1 Å²; collision cross section (N2) ([4]; [M-H]-): 272.7 Å²
20 | CC/C=C\C/C=C\C/C=C\C/C=C\CCCCC(=O)OC[C@@H](COC(=O)CCCCCCCCCCCCCCCCC)OC(=O)CCCC/C=C\C/C=C\C/C=C\CCCCC [TG(54:7)] | 318 Å² | 317.23 Å² and 320 Å² | 316.19 Å² | 
